Columns and labels:
Type in all cases: in vivo, C57BL/6J mice
[1] = system: pNF-kB p65(S536), pSTAT3(S727); assay: Immunoblot of pancreatic tumors: NF-kB and STAT3; settings: obestatin 500 nmol/Kg/72 h
Protocol: (§1) FIG. 8. Immunoblot analysis of pNF-kB p65(S536), NF-kB p65, pSTAT3(Y705), pSTAT3(S727), and STAT3 in the pancreatic tumors of C57BL/6J mice (n=4) orthotopically injected with KPC FC1242 cells and treated with vehicle [NaCl, 0.9% (w/v)] or obestatin (500 nmol/Kg/72 h). Results are expressed as fold of control of the non-treated injected mice [control; mean±SE (*, P<0.05)].
Mice were weighed at set times over the 15-day period. The sterilized surgical material was used for the tissue extraction. Pancreases and muscles were carefully removed from each animal minimizing contamination with surrounding tissue or mouse hair. Pancreases and muscles were weighed. The skeletal muscles selected were: tibialis anterior, TA; extensor digitorum longus, EDL; gastrocnemius, GAST; soleus, SOL; and diaphragm, DIA. Pancreases were also measured with a scale (cm) and pictures were taken. • Histology—Pancreas samples for histology were fixed in 4% paraformaldehyde in PBS at room temperature overnight. After fixation, samples were dehydrated and embedded in paraffin blocks. For this study, 3-micron sections were cut from each block and placed on pre-cleaned slides (Thermo Fisher Scientific, Waltham, MA, USA). […] The lysates were clarified by centrifugation (18,000×g, 15 min, 4° C.), and the protein concentration was quantified by the Quantipro™ BCA assay kit (Sigma-Aldrich, St. Louis, MO, US). […]

[2] = system: p62, LC3, cleaved caspase 3, Bax, HIF1a; assay: Immunoblot of pancreatic tumors: apoptosis, autophagy, HIF1a; settings: obestatin 500 nmol/Kg/72 h
Protocol: as §1, with “5.” for “8.”, “p62, LC3, cleaved caspase 3, Bax,” for “pNF-kB p65(S536), NF-kB p65, pSTAT3(Y705), pSTAT3(S727),”, “HIF1a” for “STAT3”
Mice were weighed at set times over the 15-day period. The sterilized surgical material was used for the tissue extraction. Pancreases and muscles were carefully removed from each animal minimizing contamination with surrounding tissue or mouse hair. Pancreases and muscles were weighed. The skeletal muscles selected were: tibialis anterior, TA; extensor digitorum longus, EDL; gastrocnemius, GAST; soleus, SOL; and diaphragm, DIA. Pancreases were also measured with a scale (cm) and pictures were taken. • Histology—Pancreas samples for histology were fixed in 4% paraformaldehyde in PBS at room temperature overnight. After fixation, samples were dehydrated and embedded in paraffin blocks. For this study, 3-micron sections were cut from each block and placed on pre-cleaned slides (Thermo Fisher Scientific, Waltham, MA, USA). The sectioned tissue slides were covered with a thin layer of paraffin, stoked at 60° C. for 1 hour and stored protected from light at room temperature to preserve the antigenicity of sections. • Immunoblot—For immunoblot analysis, pancreases were immediately frozen in dry ice and stored at −80° C. until use. Tissues were homogenized using a TissueLyser II tissue homogenizer (Qiagen, Hilden, DE), in 200 μL of RIPA lysis buffer at 30 Hz for 3 min. The lysates were clarified by centrifugation (18,000×g, 15 min, 4° C.), and the protein concentration was quantified by the Quantipro™ BCA assay kit (Sigma-Aldrich, St. Louis, MO, US).
Tissues were disrupted and homogenized in ice-cold lysis buffer [50 mM Tris-HCl pH 7.2, 150 mM NaCl, 1 mM EDTA, 1% (v/v) NP-40, 0.25% (w/v) Na-deoxycholate, protease inhibitor cocktail (PIC; 1:100; Sigma Chemical Co., St. Luis, MO, US), phosphatase inhibitor cocktail (PHIC; 1:100; Sigma Chemical Co., St. Luis, MO, US)] with 5 mm stainless steel beads using a TissueLyser (Qiagen, Hilden, DE) at 30 Hz for 3 min. The soluble cell lysates were pre-cleared by centrifuging at 14,000 rpm for 15 min. Supernatants were recovered and the protein was quantified with BCA Protein Assay Kit (Thermo Fisher Scientific, Rockford, IL, US). The same amount of protein for each sample was separated on 7-15% SDS/polyacrylamide gels and transferred to nitrocellulose membranes (Bio-Rad, Hercules, CA, US). The blots were incubated with 5% bovine serum albumin (BSA) in a Tris buffer solution (TBS) containing Tween-20 [TBST; 20 mM Tris-HCl (pH 8.0), 150 mM NaCl, 0.1% (v/v) Tween-20, solution used for all incubation and washing steps] for 1 h. The blots were then incubated with the corresponding primary antibodies and subsequently were incubated with the corresponding peroxidase-conjugated IgG antibody (Table 1). After washing, the signals were visualized using an ECL plus Western Blotting Detection System (Pierce ECL Western Blotting Substrate; Thermo Fisher Scientific, Pierce, Rockford, IL, US). The image processing was performed using the NIH Image Software ImageJ 1.53o (National Institutes of Health, Bethesda, MD, US).

[3] = system: pERK1/2(T202/Y204), ERK1/2, pAkt(S473), Akt; assay: Immunoblot of tumoral pancreatic tissue: ERK1/2 and Akt
Protocol: FIG. 4. (A) Analysis and quantification of Ki67 positive proliferative cells by immunohistochemistry in the pancreatic tumors of C57BL/6J mice (n=4) orthotopically injected with KPC FC1242 cells and treated with vehicle [NaCl, 0.9% (w/v)] or obestatin (500 nmol/Kg/72 h). Magnification: 4×. (B) Immunoblot analysis of pERK1/2(T202/Y204), ERK1/2, pAkt(S473), and Akt in tumoral pancreatic tissue. Results are expressed as fold of control of the non-treated injected mice [control; mean±SE (*, P<0.05)].
Mice were weighed at set times over the 15-day period. The sterilized surgical material was used for the tissue extraction. Pancreases and muscles were carefully removed from each animal minimizing contamination with surrounding tissue or mouse hair. Pancreases and muscles were weighed. The skeletal muscles selected were: tibialis anterior, TA; extensor digitorum longus, EDL; gastrocnemius, GAST; soleus, SOL; and diaphragm, DIA. Pancreases were also measured with a scale (cm) and pictures were taken. • Histology—Pancreas samples for histology were fixed in 4% paraformaldehyde in PBS at room temperature overnight. After fixation, samples were dehydrated and embedded in paraffin blocks. For this study, 3-micron sections were cut from each block and placed on pre-cleaned slides (Thermo Fisher Scientific, Waltham, MA, USA). […] The lysates were clarified by centrifugation (18,000×g, 15 min, 4° C.), and the protein concentration was quantified by the Quantipro™ BCA assay kit (Sigma-Aldrich, St. Louis, MO, US).
Tissues were disrupted and homogenized in ice-cold lysis buffer [50 mM Tris-HCl pH 7.2, 150 mM NaCl, 1 mM EDTA, 1% (v/v) NP-40, 0.25% (w/v) Na-deoxycholate, protease inhibitor cocktail (PIC; 1:100; Sigma Chemical Co., St. Luis, MO, US), phosphatase inhibitor cocktail (PHIC; 1:100; Sigma Chemical Co., St. Luis, MO, US)] with 5 mm stainless steel beads using a TissueLyser (Qiagen, Hilden, DE) at 30 Hz for 3 min. […] Supernatants were recovered and the protein was quantified with BCA Protein Assay Kit (Thermo Fisher Scientific, Rockford, IL, US). […]

[4] = obestatin 500 nmol/Kg/72 h, referenced to non-treated animals

With obestatin the “downregulation of pNF-KB p65(S536)” value [1] was 43.6±9.0%, the “downregulation of pSTAT3(S727)” value [1] was 52.3±12.4% and the “increased expression of HIF1a” value ([2]; compared to control or vehicle-treated animals) was 106.6±17.8%. For the same substance, the “diminution in LC3-I” value ([2]; pancreatic tumors) was 9.2±7.5%, the “increase in cleaved caspase 3” value ([2]; pancreatic tumors) was 264.6±57.7% and the “increase in levels of proapoptotic Bax” value ([2]; pancreatic tumors) was 141.6±28.4%. For the same substance, the “reduction in LC3-II levels” value ([2]; pancreatic tumors) was 21.8±7.3%, the “upregulation in p62” value ([2]; pancreatic tumors) was 75.7±20.8% and the “total expressions of ERK and AKT” value ([3]; Western blotting) was “unchanged”. For the same substance, the “Akt activation augmented, pAkt(S473)” value [3, 4] was 369.5±100.1% and the “reduction in ERK1/2 activation, pERK1/2(T202/Y204)” value [3, 4] was roughly 50%.

Source: US20260273020A1, “OBESTATIN FOR USE AS ANTINEOPLASTIC AGENT IN THE TREATMENT OF PANCREATIC CANCER” (SERVIZO GALEGO DE SAÚDE, priority 2023, published 2026)
